Data set [1] relates to ERα positive and ERα negative cells. It counts as cell-based. As to the method: ALAMAR BLUE RAPTINAL ASSAYS: Cells were plated at 4,000-10,000 cells/well (96 well plate), usually in 50 μl of medium. After about 18 hours, an additional 50 μl of medium containing 2× the desired final concentration of the test compound (C-105) was added to each well. After 24 hours Alamar Blue reagent was added and fluorescence in the wells was read (BMG PheraStar or Molecular Devices Spectra Max M3 Microplate Reader). % relative death was determined by setting the reading for raptinal-treated cells to 100% dead cells and the reading for vehicle-treated cells to 0% dead cells.
ERα positive MCF-7 breast cancer, Caov-3 ovarian cancer and ECC-1 uterine cancer cells and ERα negative MDA-MB-231 human breast cancer cells and HeLa, human cervical carcinoma cells and MCF-10A human mammary epithelial cells were plated at 10,000 cells/well (96 well plate) in 50 μl of medium. After about 18 hours, an additional 50 μl of medium containing 2× the desired final concentration of the test compound (C-105) was added to each well (final vol. 100 μl/well). After 24 hours Alamar Blue reagent was added and fluorescence in the wells was read after 1 hour (BMG PheraStar Microplate Reader). % relative death was determined by setting the reading for 10,000 nM raptinal-treated cells to 100% dead cells and the reading for vehicle-treated cells to 0% dead cells. (Data is the average ±SEM of 3 independent experiments with 5 biological replicates for each sample within each independent experiment.)
FIG. 3 compares the ability of (±)-105 to kill ERα positive and ERα negative cells. The dose response tests the ability of (±)-105 to rapidly kill ERα positive and ERα negative cells. […] After 24 hours Alamar Blue reagent was added and fluorescence in the wells was read. % relative death was determined by setting the reading for […] raptinal-treated cells to 100% dead cells and the reading for vehicle-treated cells to 0% dead cells. […]

In another data set the test system is MCF-7. Format: cell-based. As to the method: (§1) FIG. 36. Discovery of SERK-F6 (also known as, C(−)-105, (−)-105, (R)-105, (−)-1, or (R)-1), a compound that kills ERα-positive cancer cells, a, Chemical structures of BHPI and racemic compound 1 (i.e. (±)-1), and their cytotoxic activity on T47D breast cancer cells after 24-hour incubations with concentrations as indicated in nM. Cells were stained with annexin V-FITC and PI dyes prior to analysis via flow cytometry. […] Cells were incubated with SERK-F6 or positive control, Raptinal, for 24 hours and then stained with annexin V-FITC and PI dyes and analyzed via flow cytometry. Error bars represent S.E.M of 3 independent replicates. c, IC50 values of SERK-F6 after 24-hour incubation against a panel of cancer cell lines grouped by their reported ERα status. Cell viability was measured by Alamar blue fluorescence and set relative to a vehicle control and a quantitative dead control treated with Raptinal. Error bars represent S.E.M of 3 independent experiments. d, Crystal violet staining of T47D cells after 24-hour incubations with compounds and concentrations as indicated. Image is representative of 2 independent experiments. e,f, Long-term cell culture experiment with T47D, TDG, and TYS cells. Cells were incubated for 2 weeks with compounds (1 μM), followed by compound washout, and cells were cultured for 2 months. Cell number was determined by MTS. […]

The subject of a further data set is MDA-MB-231. It counts as cell-based. As to the method: as §1
A further data set concerns TYS-Luc cells. Briefly: Long-term cell culture experiment (treat 2 weeks, regrow 4 weeks), MTS, TYS-Luc. Format: cell-based, human. As to the method: To simulate the effect of several weeks of treatment of a tumor in a mouse xenograft, long-term cell culture experiments were performed. TYS-Luc cells (T47DERαY537S-Luc cells; ERαY537S is the most lethal ERα mutation seen in metastatic breast cancer) were plated at 4,000 cells/well in 96 well plates. […] After 2 weeks (medium change every 2 days) cell number was determined using MTS and a standard curve of absorbance versus cell number for TYS-Luc cells. Notes: (i) Bars denote the BHPI and (−)-105 arms of the experiment. No drug is present during regrow. […] This allows any surviving cells to regrow. After 4 weeks the cells were assayed using MTS. […] (Note: Visual inspection of the wells confirmed that there were no cells in the well treated for 2 weeks with active (−)-105.) To test whether the cells that regrew after BHPI treatment were resistant to BHPI they were re-treated for another cycle (BHPI Retreat) and shown to retain sensitivity to BHPI killing. (n=8 biological replicates ±SEM.

Results on two compounds are retold here after US11046647B2, “Activators of the unfolded protein response” (The Board of Trustees of the University of Illinois, priority 2018, dated 2021).

Regarding `O=C1Nc2c(C(F)(F)F)cccc2C1(c1ccc(O)cc1)c1ccc(OC(F)(F)F)cc1` (racemic) [(±)-105, 3-(4-hydroxyphenyl)-3-(4-(trifluoromethoxy)phenyl)-7-(trifluoromethyl)indolin-2-one], in data set [1] (0-10,000 nM, 24 hours), the “selectivity for ERα positive cancer cell lines” value is “selective for ERα positive cancer cell lines”. Moreover, the “effect in ERα negative cell lines” value in data set [1] (concentrations more than 10 times higher than those that kill ERα positive cells) is “no effect”.
`O=C1Nc2c(C(F)(F)F)cccc2C1(c1ccc(O)cc1)c1ccc(OC(F)(F)F)cc1` (single isomer, unassigned; (-)) [(−)-105, 3-(4-hydroxyphenyl)-3-(4-(trifluoromethoxy)phenyl)-7-(trifluoromethyl)indolin-2-one]: the cytotoxicity entry is on record as “cytotoxic” with MCF-7 and “minimal effects” with MDA-MB-231. Besides, the “regrowth of cells after drug removal” value in the data set with TYS-Luc cells (1 μM for 2 weeks, then 4 weeks without drug) was “no regrowth”. Moreover, the TYS-Luc cells killed in the data set on TYS-Luc cells (1 μM, 2 weeks treatment) is listed as 100%.
